Reference: patent EP4692091A1, “CA[…], AND PHARMACEUTICAL COMPOSITION, PREPARATION METHOD THEREFOR AND USE THEREOF” (Changchun Genescience Pharmaceutical Co., Ltd., priority 2023, dated 2024)
Converted amounts (≈) assume the structure as drawn.

Experiment: Kinetic solubility test in PBS 7.4
Format: physicochemical
Settings: pH 7.4, aqueous buffer
Protocol: 10 mM stock solutions of the test substances 6-2, 11-2, 17-2, Dxd, and the control drugs progesterone and diclofenac were prepared using DMSO respectively.
15 µL of 10 mM stock solution of each of the test substances was added to a corresponding position of a corresponding 96-well plate in a specified sequence. 485 µL of the PBS 7.4 was added to a corresponding vial on a sample plate. The experiment was run in duplicate. Each vial was additionally provided with a stirring rod and was plugged. Then, the sample plate was transferred in a thermostatic mixer, and oscillated at a revolving speed of 1,100 rpm at 25°C for 2 h. 2 h later, the plug was removed, the stirring rod was attracted away with a large magnet, and then the sample was transferred from the sample plate to the filter plate. Negative pressure was generated using a vacuum pump to filter the sample. 5 µL of filtrate and 5 µL of blank DMSO were transferred to another sample plate, and then 490 µL of internal standard water (acetonitrile:water=1:1) containing the internal standard was added. Depending on peak shapes, a certain proportion of internal standard water may be used to dilute the sample diluent to give better peak shapes. […]
The sample filtrate was analyzed and quantified by qualitative and quantitative LC/MS of standard substance peaks at known concentrations. […]

Q: With CC[C@@]1(O)C(=O)OCc2c1cc1n(c2=O)Cc2c-1nc1cc(F)c(C)c3c1c2[C@@H](NC(=O)CO)CC3 [Dxd] as the compound, how does the solubility at 2 h read?
A: 11.3 µM (≈ 5.58 µg/mL)
